Common to all, as to type: biochemical
For one assay, the target named is T1, HDAC6 enzyme (Homo sapiens, UniProt Q9UBN7).
T1 construct: transducing full length HDAC1 and HDAC6 genes into Sf-9 insect cells; GST; purchased SignalChem; host or cells: Sf-9 insect cells
T1 sequence (Q9UBN7 1-1215): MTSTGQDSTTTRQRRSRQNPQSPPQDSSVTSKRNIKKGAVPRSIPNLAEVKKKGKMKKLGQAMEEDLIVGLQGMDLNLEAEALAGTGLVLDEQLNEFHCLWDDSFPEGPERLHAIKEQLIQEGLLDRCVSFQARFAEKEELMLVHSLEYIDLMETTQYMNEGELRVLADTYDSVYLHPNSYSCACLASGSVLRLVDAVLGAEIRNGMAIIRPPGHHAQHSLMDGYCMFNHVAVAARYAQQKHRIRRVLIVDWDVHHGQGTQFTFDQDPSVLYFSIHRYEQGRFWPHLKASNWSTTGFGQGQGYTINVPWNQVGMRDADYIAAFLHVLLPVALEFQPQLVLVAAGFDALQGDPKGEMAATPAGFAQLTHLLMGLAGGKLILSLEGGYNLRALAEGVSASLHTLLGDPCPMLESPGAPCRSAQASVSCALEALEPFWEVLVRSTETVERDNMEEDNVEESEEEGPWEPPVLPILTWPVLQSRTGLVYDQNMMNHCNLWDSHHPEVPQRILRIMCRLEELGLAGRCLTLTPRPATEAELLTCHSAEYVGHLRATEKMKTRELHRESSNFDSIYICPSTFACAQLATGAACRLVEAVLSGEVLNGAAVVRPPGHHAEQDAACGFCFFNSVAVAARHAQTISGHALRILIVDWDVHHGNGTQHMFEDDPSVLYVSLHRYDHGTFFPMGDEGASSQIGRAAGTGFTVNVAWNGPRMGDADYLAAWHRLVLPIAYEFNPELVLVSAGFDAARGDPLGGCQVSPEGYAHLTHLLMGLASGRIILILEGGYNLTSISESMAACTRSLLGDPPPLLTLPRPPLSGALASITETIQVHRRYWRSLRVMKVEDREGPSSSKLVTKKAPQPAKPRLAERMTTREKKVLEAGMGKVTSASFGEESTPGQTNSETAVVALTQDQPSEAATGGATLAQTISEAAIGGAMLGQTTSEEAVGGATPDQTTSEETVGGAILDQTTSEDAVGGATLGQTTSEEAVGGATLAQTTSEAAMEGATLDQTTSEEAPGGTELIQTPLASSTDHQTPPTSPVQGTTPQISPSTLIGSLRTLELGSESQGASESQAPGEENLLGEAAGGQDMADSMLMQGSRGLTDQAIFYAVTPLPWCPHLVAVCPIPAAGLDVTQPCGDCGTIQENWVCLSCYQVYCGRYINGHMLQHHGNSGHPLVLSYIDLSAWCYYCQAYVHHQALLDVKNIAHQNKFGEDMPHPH
The experiment in a line: HDAC1/6 Enzyme Inhibitory Assay (HDAC-Glo I/II Assay kit), HDAC6. Particulars: 1 μM test compound, wells without enzyme = 100% inhibition; for inhibition at 1 µM: read-out: HDAC6 inhibitory rate (%) (1 μM). A digest of the protocol: (§1)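 Luminescent HDAC-Glo I/II read-out was taken 20 min after adding substrate-developer, at room temperature. Before this, compound and enzyme were held together for 60 min in 24 mM Tris-HCl pH 7.5 with 0.6 mM glutathione and 0.01% Tween-20. The enzyme was full-length HDAC1 or HDAC6 from Sf-9 cells, GST-purified. Wells without enzyme defined 100% inhibition.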

Another assay deals with T2, HDAC1 enzyme (Homo sapiens, UniProt Q13547).
T2 construct: transducing full length HDAC1 and HDAC6 genes into Sf-9 insect cells; GST; purchased SignalChem; host or cells: Sf-9 insect cells
T2 sequence (Q13547 whole entry): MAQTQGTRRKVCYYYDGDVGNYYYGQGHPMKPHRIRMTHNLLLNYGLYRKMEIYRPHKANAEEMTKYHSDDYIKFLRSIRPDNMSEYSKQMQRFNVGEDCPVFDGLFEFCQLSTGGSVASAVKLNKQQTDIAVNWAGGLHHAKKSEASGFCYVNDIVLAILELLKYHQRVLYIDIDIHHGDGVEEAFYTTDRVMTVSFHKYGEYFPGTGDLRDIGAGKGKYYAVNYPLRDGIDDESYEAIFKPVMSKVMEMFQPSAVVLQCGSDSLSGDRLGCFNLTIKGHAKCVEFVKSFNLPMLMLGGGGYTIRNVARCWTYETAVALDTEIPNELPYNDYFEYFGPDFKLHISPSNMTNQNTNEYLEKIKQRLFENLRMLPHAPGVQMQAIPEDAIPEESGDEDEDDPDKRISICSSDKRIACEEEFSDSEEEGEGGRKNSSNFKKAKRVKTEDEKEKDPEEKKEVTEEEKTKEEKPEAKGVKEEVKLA
The experiment in a line: HDAC1/6 Enzyme Inhibitory Assay (HDAC-Glo I/II Assay kit), HDAC1. The conditions noted are these: 1 μM test compound, wells without enzyme = 100% inhibition; for inhibition at 1 µM: read-out: HDAC1 inhibitory rate (%) (1 μM). The procedure, abridged:
as §1

A further assay concerns the target T3, HDAC9 enzyme (Homo sapiens, UniProt Q9UKV0).
T3 construct: transducing full length HDAC9 gene into Sf-9 insect cells; made in house; host or cells: Sf-9 insect cells
The experiment in a line: HDAC9 Enzyme Inhibitory Assay (HDAC-Glo class IIa). The conditions noted are these: 1 μM test compound, wells without enzyme = 100% inhibition; for inhibition at 1 µM: read-out: HDAC9 inhibitory rate (%) (1 μM). The procedure, abridged:
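Full-length human HDAC9 from Sf-9 cells, Ni-NTA purified, preincubated with compound for 60 min at room temperature in Tris-HCl pH 7.5 buffer (MgCl2, KCl, NaCl, glutathione, Tween-20). HDAC-Glo class IIa substrate-developer added; luminescence read after 20 min, with no-enzyme wells defining 100% inhibition.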

T3 sequence (Q9UKV0 whole entry, species assumed): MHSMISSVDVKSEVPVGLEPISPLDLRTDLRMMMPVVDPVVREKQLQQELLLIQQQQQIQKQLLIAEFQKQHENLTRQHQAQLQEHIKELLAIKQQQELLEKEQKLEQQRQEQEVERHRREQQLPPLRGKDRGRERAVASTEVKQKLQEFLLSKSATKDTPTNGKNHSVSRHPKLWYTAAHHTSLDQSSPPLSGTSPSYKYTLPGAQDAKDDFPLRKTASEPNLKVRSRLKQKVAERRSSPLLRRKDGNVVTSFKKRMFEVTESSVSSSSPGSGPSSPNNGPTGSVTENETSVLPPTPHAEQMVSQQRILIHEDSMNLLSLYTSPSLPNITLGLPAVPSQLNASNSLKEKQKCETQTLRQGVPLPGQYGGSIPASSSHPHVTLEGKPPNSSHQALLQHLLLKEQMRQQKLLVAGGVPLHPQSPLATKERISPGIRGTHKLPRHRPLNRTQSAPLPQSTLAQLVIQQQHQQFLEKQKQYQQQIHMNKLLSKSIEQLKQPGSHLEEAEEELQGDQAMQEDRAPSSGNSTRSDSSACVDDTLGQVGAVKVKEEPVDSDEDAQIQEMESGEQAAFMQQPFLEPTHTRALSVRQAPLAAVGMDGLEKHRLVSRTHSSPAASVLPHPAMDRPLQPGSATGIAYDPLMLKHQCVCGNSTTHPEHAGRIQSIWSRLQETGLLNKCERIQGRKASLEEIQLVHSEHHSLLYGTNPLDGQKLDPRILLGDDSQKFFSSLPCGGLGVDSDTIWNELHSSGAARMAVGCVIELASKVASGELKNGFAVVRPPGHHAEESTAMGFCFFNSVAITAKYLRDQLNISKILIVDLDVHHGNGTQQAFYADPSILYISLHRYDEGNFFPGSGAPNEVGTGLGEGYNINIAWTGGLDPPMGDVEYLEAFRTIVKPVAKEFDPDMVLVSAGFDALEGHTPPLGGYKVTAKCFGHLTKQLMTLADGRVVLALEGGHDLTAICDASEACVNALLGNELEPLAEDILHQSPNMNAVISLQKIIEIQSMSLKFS

As for `O=C1CCCN1[C@@H]1COCC[C@H]1N1Cc2ccc(-c3noc(C(F)(F)F)n3)cc2C1=O` [Example 177, 2-((3S,4R)-3-(2-oxopyrrolidin-1-yl)tetrahydro-2H-pyran-4-yl)-6-(5-(trifluoromethyl)-1,2,4-oxadiazol-3-yl)isoindolin-1-one], the inhibition at 1 µM on HDAC6 enzyme stood at 98%; on HDAC1 enzyme, 8%; at HDAC9 enzyme, 64%.
With `O=C1CCCN1[C@@H]1CCOC[C@H]1N1Cc2ccc(-c3noc(C(F)(F)F)n3)cc2C1=O` [Example 178, 2-((3S,4R)-4-(2-oxopyrrolidin-1-yl)tetrahydro-2H-pyran-3-yl)-6-(5-(trifluoromethyl)-1,2,4-oxadiazol-3-yl)isoindolin-1-one], the “HDAC6 inhibitory rate (%) (1 μM)” value on HDAC6 enzyme is listed as 99%. Moreover, the “HDAC1 inhibitory rate (%) (1 μM)” value at HDAC1 enzyme came to 8%. Besides, at HDAC9 enzyme, the “HDAC9 inhibitory rate (%) (1 μM)” value is on record as 61%.
Take `O=C1c2cc(-c3noc(C(F)(F)F)n3)ccc2CN1[C@@H]1COCC[C@H]1O` [Example 179, 1,5-anhydro-2,4-dideoxy-2-(1-oxo-6-(5-(trifluoromethyl)-1,2,4-oxadiazol-3-yl)-1,3-dihydro-2H-isoindol-2-yl)-D-threo-pentitol]: the values for the inhibition at 1 µM at HDAC6 enzyme, on HDAC1 enzyme and at HDAC9 enzyme were 90%, 11% and 84%, respectively.
Regarding `O=C1CCCN1[C@@H]1COCC[C@H]1N1Cc2ccc(-c3noc(C(F)(F)F)n3)cc2C1=O` [Example 180, 2-((3S,4R)-3-(2-oxopyrrolidin-1-yl)tetrahydro-2H-pyran-4-yl)-6-(5-(trifluoromethyl)-1,2,4-oxadiazol-3-yl)isoindolin-1-one], the “HDAC6 inhibitory rate (%) (1 μM)” value at HDAC6 enzyme was found to be 99%. Also, the “HDAC1 inhibitory rate (%) (1 μM)” value at HDAC1 enzyme came to 13%. Besides, the “HDAC9 inhibitory rate (%) (1 μM)” value at HDAC9 enzyme came out at 72%.
For the molecule `O=C1CCCN1[C@H]1COCC[C@@H]1N1Cc2ccc(-c3noc(C(F)(F)F)n3)cc2C1=O` [Example 181, 2-((3R,4S)-3-(2-oxopyrrolidin-1-yl)tetrahydro-2H-pyran-4-yl)-6-(5-(trifluoromethyl)-1,2,4-oxadiazol-3-yl)isoindolin-1-one], the inhibition at 1 µM came to 74% on HDAC6 enzyme, 2% at HDAC1 enzyme and 41% at HDAC9 enzyme.
With `O=C1CCCN1[C@@H]1CCOC[C@H]1N1Cc2ccc(-c3noc(C(F)(F)F)n3)cc2C1=O` [Example 182, 2-((3S,4R)-4-(2-oxopyrrolidin-1-yl)tetrahydro-2H-pyran-3-yl)-6-(5-(trifluoromethyl)-1,2,4-oxadiazol-3-yl)isoindolin-1-one], the “HDAC6 inhibitory rate (%) (1 μM)” value on HDAC6 enzyme worked out at 98%. On HDAC1 enzyme, the “HDAC1 inhibitory rate (%) (1 μM)” value amounted to 10%. Besides, at HDAC9 enzyme, the “HDAC9 inhibitory rate (%) (1 μM)” value is listed as 71%.
In the same order, the values of `O=C1CCCN1[C@@H]1CCOC[C@H]1N1Cc2ccc(-c3noc(C(F)(F)F)n3)cc2C1=O` [Example 183, 2-((3S,4R)-4-(2-oxopyrrolidin-1-yl)tetrahydro-2H-pyran-3-yl)-6-(5-(trifluoromethyl)-1,2,4-oxadiazol-3-yl)isoindolin-1-one] are 77%, 1% and 47%.
Turning to `O=C1CCCN1c1ccccc1N1Cc2ccc(-c3noc(C(F)(F)F)n3)cc2C1=O` [Example 184, 2-(2-(2-oxopyrrolidin-1-yl)phenyl)-6-(5-(trifluoromethyl)-1,2,4-oxadiazol-3-yl)isoindolin-1-one], the inhibition at 1 µM on HDAC6 enzyme was 98%; at HDAC1 enzyme, 7%; at HDAC9 enzyme it was 56%.
In the same order, the values of `O=C1CCCN1c1cccc(Cl)c1N1Cc2ccc(-c3noc(C(F)(F)F)n3)cc2C1=O` [Example 185, 2-(2-chloro-6-(2-oxopyrrolidin-1-yl)phenyl)-6-(5-(trifluoromethyl)-1,2,4-oxadiazol-3-yl)isoindolin-1-one] are 97%, 5% and 41%.
`O=C1CCCN1[C@@H]1CCCC[C@H]1N1Cc2ncc(-c3noc(C(F)(F)F)n3)cc2C1=O` [Example 186, 6-((1R,2R)-2-(2-oxopyrrolidin-1-yl)cyclohexyl)-3-(5-(trifluoromethyl)-1,2,4-oxadiazol-3-yl)-6,7-dihydro-5H-pyrrolo[3,4-b]pyridin-5-one]: the inhibition at 1 µM is 97% at HDAC6 enzyme, 26% on HDAC1 enzyme and 95% on HDAC9 enzyme.
Regarding `O=C(N[C@@H]1CCCC[C@H]1N1Cc2ccc(-c3noc(C(F)(F)F)n3)cc2C1=O)N1CC(F)C1` [Example 187, 3-fluoro-N-((1R,2R)-2-(1-oxo-6-(5-(trifluoromethyl)-1,2,4-oxadiazol-3-yl)-1,3-dihydro-2H-isoindol-2-yl)cyclohexyl)azetidine-1-carboxamide], the inhibition at 1 µM on HDAC6 enzyme came to 99%; at HDAC1 enzyme it was 9%; at HDAC9 enzyme, 29%.
The matching figures for `CN(C)C(=O)c1ccccc1N1Cc2ccc(-c3noc(C(F)(F)F)n3)cc2C1=O` [Example 188, N,N-dimethyl-2-(1-oxo-6-(5-(trifluoromethyl)-1,2,4-oxadiazol-3-yl)-1,3-dihydro-2H-isoindol-2-yl)benzamide]: 95%, 10% and 45%.
The matching figures for `O=C(N[C@@H]1CCOC[C@H]1N1Cc2ccc(-c3noc(C(F)(F)F)n3)cc2C1=O)[C@H]1CC1(F)F` [Example 190, (1R)-2,2-difluoro-N-((3S,4R)-3-(1-oxo-6-(5-(trifluoromethyl)-1,2,4-oxadiazol-3-yl)-1,3-dihydro-2H-isoindol-2-yl)tetrahydro-2H-pyran-4-yl)cyclopropanecarboxamide]: 100%, 19% and 84%.
In the same order, the values of `CC1(C(=O)N[C@@H]2CCOC[C@H]2N2Cc3ccc(-c4noc(C(F)(F)F)n4)cc3C2=O)COC1` [Example 192, 3-methyl-N-((3S,4R)-3-(1-oxo-6-(5-(trifluoromethyl)-1,2,4-oxadiazol-3-yl)-1,3-dihydro-2H-isoindol-2-yl)tetrahydro-2H-pyran-4-yl)oxetane-3-carboxamide] are 99%, 6% and 40%.
On to `CC1(C(=O)N[C@H]2CCCC[C@@H]2N2Cc3ccc(-c4noc(C(F)(F)F)n4)cc3C2=O)COC1` [Example 193, 3-methyl-N-((1S,2S)-2-(1-oxo-6-(5-(trifluoromethyl)-1,2,4-oxadiazol-3-yl)-1,3-dihydro-2H-isoindol-2-yl)cyclohexyl)oxetane-3-carboxamide], for which the inhibition at 1 µM was 43% at HDAC6 enzyme, 4% on HDAC1 enzyme and 32% at HDAC9 enzyme.
In the same order, the values of `CC1(C(=O)N[C@@H]2CCCC[C@H]2N2Cc3ccc(-c4noc(C(F)(F)F)n4)cc3C2=O)CNC1` [Example 194, 3-methyl-N-((1R,2R)-2-(1-oxo-6-(5-(trifluoromethyl)-1,2,4-oxadiazol-3-yl)-1,3-dihydro-2H-isoindol-2-yl)cyclohexyl)azetidine-3-carboxamide] are 100%, 3% and 26%.

Values taken from US10308643B2, “Heterocyclic compound” (Takeda Pharmaceutical Company Limited, priority 2015, dated 2019).
